Molecules are shown by their SMILES.

In general, IC50 refers to the concentration that gives 50% inhibition.

For the experiment, the target named is HIV protease (Human immunodeficiency virus type 1 group M subtype B, UniProt P03366). The experiment can be described thus: biochemical. The settings on record: protease expressed in Escherichia coli; peptide substrate Val-Ser-Gln-Asn-(betanapthyl)Ala-Pro-Ile-Val; 50 mM Na acetate, pH 5.5, 30° C., 1 hour; HPLC. As to the method: Assay for Inhibition of Microbial Expressed Viral Protease
Inhibition studies of the reaction of the protease expressed in Escherichia coli with a peptide substrate Val-Ser-Gln-Asn-(betanapthyl)Ala-Pro-Ile-Val, 0.5 mg/mL at the time the reaction is initiated! were in 50 mM Na acetate, pH 5.5, at 30° C. for 1 hour. Various concentrations of inhibitor in 1.0 ul DMSO were added to 25 ul of the peptide solution in water. The reaction is initiated by the addition of 15 ul of 0.33 nM protease (0.11 ng) in a solution of 0.133 M Na acetate pH 5.5 and 0.26% bovine serum albumin. The reaction was quenched with 160 ul of 5% phosphoric acid. Products of the reaction were separated by HPLC (VYDAC wide pore 5 cm C-18reverse phase, acetonitrile gradient, 0.1% phosphoric acid). The extent of inhibition of the reaction was determined from the peak heights of the products.
In turn, `CC(C)[C@@H]1[C@H](OC(=O)N[C@@H](Cc2ccccc2)[C@H](O)CN2C[C@H]3CCCC[C@H]3C[C@H]2C(=O)NC(C)(C)C)CCS1(=O)=O` [Compound C, N-tert-butyl-decahydro-2 2(R)-hydroxy-4-phenyl-3(S)-1,1-dioxo-2(R)-methylethyl-3(R)-tetrahydrothienyloxycarbonylamino!butyl!-(4aS, 8aS) isoquinoline-3(S)-carboxamide] yielded an IC50 of around 4 nM.

In turn, `CC(C)(C)NC(=O)[C@@H]1C[C@@H]2CCCC[C@@H]2CN1C[C@@H](O)[C@H](Cc1ccccc1)NC(=O)O[C@H]1CCOC1` [Compound A, cis-N-tert-butyl-decahydro-2 2(R)hydroxy-4-phenyl-3(S)-3(S)-tetrahydrofuranyloxycarbonylamino !-butyl!-(4aS, 8aS )-isoquinoline-3(S)carboxamide] came in with an IC50 of around 260 nM.

`CC(C)(C)NC(=O)[C@@H]1C[C@@H]2CCCC[C@@H]2CN1C[C@@H](O)[C@H](Cc1ccccc1)NC(=O)O[C@H]1CCS(=O)(=O)C1` [B, Cis-N-tert-butyl-decahydro-2 2(R)-hydroxy-4-phenyl-3(S)-3(S)-1,1-dioxotetr ahydrothien-3-yloxycarbonylamino !-butyl!-(4aS, 8aS )-isoquinoline-3(S)-carboxamide hydrate]: the IC50 was around 59 nM.

For the origin of these results see US5502060A, “HIV protease inhibitors” (Merck & Co., Inc., priority 1994, dated 1996).
